Data taken from patent US20180155344A1, “TRICYCLIC PIPERIDINE COMPOUNDS” (ACTELION PHARMACEUTICALS LTD, priority 2015, published 2018).
pIC50: −log10 of the molar value.

target: T1, human TPH1 (Homo sapiens, UniProt P17752); assay: biochemical
T1 sequence (P17752 1-444): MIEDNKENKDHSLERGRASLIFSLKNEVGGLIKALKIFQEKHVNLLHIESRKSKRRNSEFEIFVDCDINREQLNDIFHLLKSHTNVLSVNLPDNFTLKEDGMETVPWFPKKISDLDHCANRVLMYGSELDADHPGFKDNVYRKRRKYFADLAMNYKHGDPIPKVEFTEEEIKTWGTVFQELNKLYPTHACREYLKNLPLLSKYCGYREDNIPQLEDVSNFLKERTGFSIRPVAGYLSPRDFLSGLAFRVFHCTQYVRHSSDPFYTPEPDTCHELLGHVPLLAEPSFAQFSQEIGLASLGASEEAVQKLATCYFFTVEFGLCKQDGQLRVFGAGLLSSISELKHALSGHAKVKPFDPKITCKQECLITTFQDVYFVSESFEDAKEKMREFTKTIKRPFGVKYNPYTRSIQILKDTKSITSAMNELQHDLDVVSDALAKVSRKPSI
Description: Biochemical In Vitro Assay Using Fluorescence Readout
To generate the enzyme, full length human TPH1 is cloned into the plasmid pET20b(+) (Novagen) and expressed in E. coli. The bacterial cells are ruptured by sonication on ice and the lysate is cleared by centrifugation. The resulting protein in the pellet is re-extracted and TPH1 is purified from the obtained lysate by affinity chromatography using a pterin cosubstrate analog immobilized to the resin of the column. The protein is further purified by size exclusion chromatography to remove protein aggregates. The activity of TPH1 is determined by using a fluorescence assay. The enzyme activity assay is carried out at 15° C. with atmosphere oxygen for the duration of 60 minutes in a volume of 64 μl. The reaction is carried out in a 0.1 M Tris-HCl buffer, adjusted to pH 7.6, containing 1 mM DTT, 0.2 mg/mL catalase, 100 μM (±)-6-methyl-5,6,7,8-tetrahydropterine dihydrochloride, 40 μM L-tryptophan, and 40-80 nM of TPH1. The reaction is started by bringing together L-tryptophan with all the other reaction substituents and stopped by quenching with perchloric acid (HClO4). The amount of 5-hydroxy-L-tryptophan produced during the enzymatic reaction is determined by fluorescence readout. Fluorescence, as determined at 540 nm when excited at 300 nm wavelength, increases proportionally to the 5-hydroxy-L-tryptophan formed. Compounds are prepared as 10 mM stock solution in DMSO, then diluted in 384-well plates using DMSO followed by a transfer of the dilutions into the assay plate. Fluorescence is measured for each well and the fluorescence at 540 nm wavelength is compared to the fluorescence of the vehicle in place of compound. […] The calculated IC50 values may fluctuate depending on the daily biochemical assay performance. Fluctuations of this kind are known to those skilled in the art.

pIC50	SMILES
6.34	CCc1nc(NS(C)(=O)=O)ccc1OCC(=O)N1CCc2nc3cnccn3c2C1c1sc(C)nc1C (stereo not drawn) [Example 17.3.1, N-(5-(2-(1-(2,4-dimethylthiazol-5-yl)-3,4-dihydropyrido[4′,3′:4,5]imidazo[1,2-a]pyrazin-2(1H)-yl)-2-oxoethoxy)-6-ethylpyridin-2-yl)methanesulfonamide]
6.78	COc1ccc(C2c3c(nc4cc(C(F)(F)F)ccn34)CCN2C(=O)COc2cnc3ccccc3c2)cc1OC (stereo not drawn) [Example 3.1.22]
7.52	COc1cc(C2c3c(nc4cc(C(F)(F)F)ccn34)CCN2C(=O)COc2ccc3ccccc3c2)cnc1OC (stereo not drawn) [Example 3.19.1, 1-(1-(5,6-dimethoxypyridin-3-yl)-7-(trifluoromethyl)-3,4-dihydroimidazo[1,2-a:5,4-c′]dipyridin-2(1H)-yl)-2-(naphthalen-2-yloxy)ethan-1-one]
6.66	Cc1noc(C)c1C1c2c(nc3cc(C(F)(F)F)ccn23)CCN1C(=O)COc1ccc(CN2CCOCC2)cc1Cl (stereo not drawn) [Example 3.51.2, 2-(2-chloro-4-(morpholinomethyl)phenoxy)-1-(1-(3,5-dimethylisoxazol-4-yl)-7-(trifluoromethyl)-3,4-dihydroimidazo[1,2-a:5,4-c′]dipyridin-2(1H)-yl)ethan-1-one]
7.04	Cc1ccc(C2c3c(nc4cc(C(F)(F)F)ccn34)CCN2C(=O)COc2ccc(CN3CCOCC3)cc2Cl)cn1 (stereo not drawn) [Example 3.38.2, 2-(2-chloro-4-(morpholinomethyl)phenoxy)-1-(1-(6-methylpyridin-3-yl)-7-(trifluoromethyl)-3,4-dihydroimidazo[1,2-a:5,4-c′]dipyridin-2(1H)-yl)ethan-1-one]
6.46	O=C(COc1ccc(CN2CCOCC2)cc1Cl)N1CCc2nc3cc(C(F)(F)F)ccn3c2C1c1ncccc1F (stereo not drawn) [Example 3.21.2, 2-(2-chloro-4-(morpholinomethyl)phenoxy)-1-(1-(3-fluoropyridin-2-yl)-7-(trifluoromethyl)-3,4-dihydroimidazo[1,2-a:5,4-c′]dipyridin-2(1H)-yl)ethan-1-one]
6.36	Cc1cc(C2c3c(nc4cc(C(F)(F)F)ccn34)CCN2C(=O)COc2ccc3ccccc3c2)n(C)n1 (stereo not drawn) [Example 3.40.1, 1-(1-(1,3-dimethyl-1H-pyrazol-5-yl)-7-(trifluoromethyl)-3,4-dihydroimidazo[1,2-a:5,4-c′]dipyridin-2(1H)-yl)-2-(naphthalen-2-yloxy)ethan-1-one]
7.15	COC(=O)c1ccc(C2c3c(nc4ccccn34)CCN2C(=O)COc2ccc(NS(C)(=O)=O)nc2Cl)c(F)c1 (stereo not drawn) [Example 1.15.1, methyl-4-(2-(2-((2-chloro-6-(methylsulfonamido)pyridin-3-yl)oxy)acetyl)-1,2,3,4-tetrahydroimidazo[1,2-a:5,4-c′]dipyridin-1-yl)-3-fluorobenzoate]
6.61	CCc1cc(C)c(C(N)=O)cc1OCC(=O)N1CCc2nc3ccccn3c2C1c1ccc(OC)c(OC)c1 (stereo not drawn) [Example 1.1.11, 5-(2-(1-(3,4-dimethoxyphenyl)-3,4-dihydroimidazo[1,2-a:5,4-c′]dipyridin-2(1H)-yl)-2-oxoethoxy)-4-ethyl-2-methylbenzamide]
8.15	O=C(COc1ccc(CN2CCOCC2)cc1Cl)N1CCc2nc3cc(C(F)(F)F)ccn3c2C1c1ccc(Cl)cc1F (stereo not drawn) [Example 3.4.2, 1-(1-(4-chloro-2-fluorophenyl)-7-(trifluoromethyl)-3,4-dihydroimidazo[1,2-a:5,4-c′]dipyridin-2(1H)-yl)-2-(2-chloro-4-(morpholinomethyl)phenoxy)ethan-1-one]
7.23	O=C(COc1ccc2ccccc2c1)N1CCc2nc3cc(C(F)(F)F)ccn3c2C1c1ccc(Cl)cc1 (stereo not drawn) [Example 3.30.1, 1-(1-(4-chlorophenyl)-7-(trifluoromethyl)-3,4-dihydroimidazo[1,2-a:5,4-c′]dipyridin-2(1H)-yl)-2-(naphthalen-2-yloxy)ethan-1-one]
7.51	N#Cc1ccc(C2c3c(nc4ccccn34)CCN2C(=O)COc2ccc(C(=O)NC3CC3)nc2Cl)c(F)c1 (stereo not drawn) [Example 1.20.2, 6-chloro-5-(2-(1-(4-cyano-2-fluorophenyl)-3,4-dihydroimidazo[1,2-a:5,4-c′]dipyridin-2(1H)-yl)-2-oxoethoxy)-N-cyclopropylpicolinamide]
6.23	COC(C)(C)c1ccc(C2c3c(nc4ccccn34)CCN2C(=O)COc2ccc(NS(C)(=O)=O)nc2Cl)c(F)c1 (stereo not drawn) [Example 1.17.2, N-(6-chloro-5-(2-(1-(2-fluoro-4-(2-methoxypropan-2-yl)phenyl)-3,4-dihydroimidazo[1,2-a:5,4-c′]pyridin-2(1H)-yl)-2-oxoethoxy)pyridin-2-yl)methanesulfonamide]
7.40	COCc1ccc(C2c3c(nc4ccccn34)CCN2C(=O)COc2ccc(NS(C)(=O)=O)nc2Cl)c(F)c1 (stereo not drawn) [Example 1.18.2, N-(6-chloro-5-(2-(1-(2-fluoro-4-(methoxymethyl)phenyl)-3,4-dihydroimidazo[1,2-a:5,4-c′]dipyridin-2(1H)-yl)-2-oxoethoxy)pyridin-2-yl)methanesulfonamide]
6.88	COc1ccc(C2c3c(nc4cc(C(F)(F)F)ccn34)CCN2C(=O)COc2ccc(C(F)(F)F)cc2)cc1OC (stereo not drawn) [Example 3.1.8]
7.30	O=C(COc1ccc(CN2CCOCC2)cc1Cl)N1CCc2nc3cc(C(F)(F)F)ccn3c2C1c1ccc(Cl)nc1 (stereo not drawn) [Example 3.37.1, 2-(2-chloro-4-(morpholinomethyl)phenoxy)-1-(1-(6-chloropyridin-3-yl)-7-(trifluoromethyl)-3,4-dihydroimidazo[1,2-a:5,4-c′]dipyridin-2(1H)-yl)ethan-1-one]
7.54	CCc1nc(C)ccc1OCC(=O)N1CCc2nc3ccccn3c2C1c1ccc(C2CC2)cc1F (stereo not drawn) [Example 1.5.5, 1-(1-(4-cyclopropyl-2-fluorophenyl)-3,4-dihydroimidazo[1,2-a:5,4-c′]dipyridin-2(1H)-yl)-2-((2-ethyl-6-methylpyridin-3-yl)oxy)ethan-1-one]
6.33	Cc1cc(Cl)ccc1OCC(=O)N1CCc2nc3cc(C(F)(F)F)ccn3c2C1c1ncccc1F (stereo not drawn) [Example 3.21.4, 2-(4-chloro-2-methylphenoxy)-1-(1-(3-fluoropyridin-2-yl)-7-(trifluoromethyl)-3,4-dihydroimidazo[1,2-a:5,4-c′]dipyridin-2(1H)-yl)ethan-1-one]
6.65	COC(=O)c1ccc(OCC(=O)N2CCc3nc4ccccn4c3[C@@H]2c2ncc(Cl)cc2F)c(Cl)n1 [Example 1.14.2, methyl (R)-6-chloro-5-(2-(1-(5-chloro-3-fluoropyridin-2-yl)-3,4-dihydroimidazo[1,2-a:5,4-c′]dipyridin-2(1H)-yl)-2-oxoethoxy)picolinate]
7.36	Cc1ccc(C2c3c(nc4cc(C(F)(F)F)ccn34)CCN2C(=O)COc2cccnc2Cl)c(F)c1 (stereo not drawn) [Example 3.22.2, 2-((2-chloropyridin-3-yl)oxy)-1-(1-(2-fluoro-4-methylphenyl)-7-(trifluoromethyl)-3,4-dihydroimidazo[1,2-a:5,4-c′]dipyridin-2(1H)-yl)ethan-1-one]
6.87	O=C(COc1ccc(CN2CCOCC2)cc1Cl)N1CCc2nc3cc(C(F)(F)F)ccn3c2C1c1ccc(OC(F)(F)F)cc1 (stereo not drawn) [Example 3.27.1, 2-(2-chloro-4-(morpholinomethyl)phenoxy)-1-(1-(4-(trifluoromethoxy)phenyl)-7-(trifluoromethyl)-3,4-dihydroimidazo[1,2-a:5,4-c′]dipyridin-2(1H)-yl)ethan-1-one]
6.31	CS(=O)(=O)Nc1ccc(OC2(C(=O)N3CCc4nc5ccccn5c4C3c3ccc(Cl)cc3F)CC2)c(Cl)n1 (stereo not drawn) [Example 1.4.16, N-(6-chloro-5-(1-(1-(4-chloro-2-fluorophenyl)-1,2,3,4-tetrahydroimidazo[1,2-a:5,4-c′]dipyridine-2-carbonyl)cyclopropoxy)pyridin-2-yl)methanesulfonamide]
7.16	O=C(COc1ccc2ccccc2c1)N1CCc2nc3cc(C(F)(F)F)ccn3c2C1c1ncccc1F (stereo not drawn) [Example 3.21.1, 1-(1-(3-fluoropyridin-2-yl)-7-(trifluoromethyl)-3,4-dihydroimidazo[1,2-a:5,4-c′]dipyridin-2(1H)-yl)-2-(naphthalen-2-yloxy)ethan-1-one]
7.22	COc1ccc(COc2cc(C3c4c(nc5cc(Cl)ccn45)CCN3C(=O)COc3ccc4ccccc4c3)ccc2OC)cc1 (stereo not drawn) [Example 2.7.1, 1-(7-chloro-1-(4-methoxy-3-((4-methoxybenzyl)oxy)phenyl)-3,4-dihydroimidazo[1,2-a:5,4-c′]dipyridin-2(1H)-yl)-2-(naphthalen-2-yloxy)ethan-1-one]
